Six compounds from ChEMBL document CHEMBL1132676, “Resolution of a CPzI precursor, synthesis and biological evaluation of (+) and (-)-N-Boc-CPzI: a further validation of the relationship between chemical solvolytic stability and cytotoxicity” (Bioorg Med Chem Lett, 1999) can be followed below.

pIC50: −log10 of the molar value.

Test system in one data set: not listed separately
The data set can be described thus: The compound was evaluated for the chemical solvolytic stability at a pH 3. The class given is physicochemical. The conditions noted are these: buffer.
For the compound `COC(=O)c1cc2c([nH]1)C(=O)C=C1N(C(=O)OC(C)(C)C)C[C@H]3C[C@]123`, the half-life is 177 h.

Consider `Cc1c[nH]c2c1[C@@]13C[C@@H]1CN(C(=O)OC(C)(C)C)C3=CC2=O`, for which the T1/2 was 37 h. Compound `Cc1n[nH]c2c1C13CC1CN(C(=O)OC(C)(C)C)C3=CC2=O` (centres undefined) had a half-life of 110 h. The same measure, in the same setting: next, `CC(C)(C)OC(=O)N1C[C@H]2C[C@@]23C1=CC(=O)c1ccccc13`: 133 h.

The subject of the next data set is L1210. The data set can be described thus: In vitro cytotoxicity against L1210 murine leukemia cell lines. It is filed as functional, cell-based. The conditions noted are these: Mus musculus.
The compound `COC(=O)c1cc2c([nH]1)C(=O)C=C1N(C(=O)OC(C)(C)C)C[C@H]3C[C@]123` showed a pIC50 of 8.22. Still for that read-out and setting: next, `Cc1n[nH]c2c1[C@@]13C[C@@H]1CN(C(=O)OC(C)(C)C)C3=CC2=O`: 6.69.

Take `Cc1n[nH]c2c1[C@]13C[C@H]1CN(C(=O)OC(C)(C)C)C3=CC2=O`: the negative logarithm of the IC50 (pIC50) is 6.03. The same measure, in the same setting: the result for `Cc1n[nH]c2c1C13CC1CN(C(=O)OC(C)(C)C)C3=CC2=O` (centres undefined) reads 6.43; that for `CC(C)(C)OC(=O)N1C[C@H]2C[C@@]23C1=CC(=O)c1ccccc13`, 7.10.

The term half-life denotes the time in which the quantity being followed falls by half. One may read the pIC50 as −log10 of the IC50, conventionally taken in molar units.
